Test results reported in PMC11775033, “Toxicokinetics of benzotriazole UV stabilizer UV-P in humans after single oral administration” (Archives of Toxicology, 2024).
Where “and” joins values, the source holds several entries; their conditions need not be identical. Identical values can stand only once. Like-named read-outs stand apart in the source and are kept apart here.

Experiments:
[1] = Kinetics of UV-P in blood after single oral administration (human volunteer study); assay type: in vivo; settings: for half-life: po, 0.3 mg/kg; for Tmax: oral, post-exposure, read-out: time of maximum blood levels
Protocol: Three healthy volunteers (two men and one person) aged between 23 and 57 years were included in the study. The administered dose of UV-P was calculated with respect to an adequate distance from the no-observed-adverse-effect level (NOAEL) determined in toxicological studies in rats (30 mg/kg body weight per day) (OECD [2017]). The NOAEL was used as a starting point and a safety factor of 100 was applied. As a result, 0.3 mg/kg body weight was administered to each participant.
(§1) One blood and one urine sample were collected from each study participant prior to the oral administration of UV-P to determine potential background exposure. 14–27 mg of UV-P (see Table 1) were weighed onto a small piece of bread with butter, which was then consumed by the volunteers. From Subject 1, urine and blood samples were collected up to 72 h post-application. From the other two subjects, samples of urine and blood were collected up to 48 h post-application. The participants collected all urine voids in separate containers. Sampling times and volumes were recorded for each sample. The urine samples were aliquoted and stored at − 20 °C until analysis. 9 ml of blood were drawn from peripheral veins 1 h, 2 h, 3 h, 4 h, 5 h, 6 h, 10 h, 24 h, and 48 h after exposure and collected in EDTA-Monovettes®. From Subject 1, additional blood samples were drawn 8 h, 12 h, 32 h, and 72 h after exposure. Blood samples were stored at – 20 °C until analysis.
The preparation and processing of the blood samples was based on a previously published method (Fischer and Göen [2023]). The samples were stored at – 20 °C until analysis. The samples were thawed at room temperature and mixed on a roller mixer. 1 ml of each sample was pipetted into a separate 6-ml glass vial. 20 µl of the d4-UV-P spiking solution [1000 µg/l of d4-UV-P in a mixture of 0.9% NaCl solution and acetonitrile (v/v, 9:1)] was added. 1 ml of acetonitrile was added to the samples, which were then vortex-mixed for 1 min and centrifuged at 4000 × g for 15 min at room temperature. The supernatants were transferred to clean 6-ml glass vials. 0.5 ml of sodium acetate buffer (0.4 M, pH 5.0) and 10 µl of β-glucuronidase/arylsulfatase from H. pomatia were added. After brief vortex-mixing, the samples were incubated at 37 °C for 16 h. After incubation, the samples were transferred to conical-bottomed centrifuge tubes and diluted with 2.5 ml of water. 1 ml of acetonitrile and 700 µl of chloroform were added and the samples were vortex-mixed for 30 s and centrifuged at 2500 × g for 15 min. The lower organic phases were pipetted into separate 1.8-ml glass vials and evaporated to dryness, followed by the addition of 40 µl of toluene and 40 µl of BSA/TMCS. The samples were vortex-mixed and derivatized at room temperature for 10 min. Afterwards, 20 µl of 5% (v/v) TSIM were added. The samples were vortex-mixed and transferred into the micro-inserts of 1.8-ml glass vials. Finally, the samples were heated to 40 °C for 1 h and analyzed by GC–MS/MS.
A seven-point calibration curve in the range of 0.5–150 µg/l was applied. Calibration standards were prepared by spiking human blood with various volumes of the UV-P spiking solutions containing 1000 µg/l or 100 µg/l of UV-P in a mixture of 0.9% NaCl solution and acetonitrile (v/v, 9:1). One sample each of Qlow (low-concentration quality-control material; 1 µg/l) and Qhigh (high-concentration quality-control material; 30 µg/l) was processed analogously to the samples in each analytical run. A reagent-blank sample, containing water instead of blood, was included in each analytical run as well. Any blank values were subtracted from the analytical results. The reliability criteria of the method are given in the Supplementary Information. […]

[2] = Renal excretion kinetics of UV-P in urine after single oral administration (human volunteer study); assay type: in vivo; settings: for half-life: oral, 0.3 mg/kg body weight
Protocol: Three healthy volunteers (two men and one person) aged between 23 and 57 years were included in the study. […] The NOAEL was used as a starting point and a safety factor of 100 was applied. As a result, 0.3 mg/kg body weight was administered to each participant.
as §1
The preparation and processing of urine samples was based on a method published by Fischer and Göen ([2021]). However, a few modifications were made. The samples were thawed at room temperature, thoroughly mixed, and subsequently centrifuged at 1600 × g for 2 min. 200 µl of the supernatant were transferred into a 10-ml glass, conical-bottomed centrifuge tube. 800 µl of water, 10 µl of the internal-standard spiking solution (10 mg/l of d4-UV-P in acetonitrile), and 1 ml of sodium acetate buffer (0.4 M, pH 5.0) were added to the samples. After vortex-mixing, 10 µl of β-glucuronidase/arylsulfatase from H. pomatia were added and the samples were briefly vortex-mixed. Enzymatic hydrolysis was performed at 37 °C for 16 h. Afterwards, 2 ml of water, 700 µl of isopropanol, and 400 µl of chloroform were added. The samples were vortex-mixed for 30 s and centrifuged at 2300 × g for 15 min. The lower organic phases were pipetted into 1.8-ml glass vials and evaporated to dryness, followed by the addition of 40 µl of toluene and 40 µl of BSA/TMCS. The samples were vortex-mixed and derivatized at room temperature for 10 min. Afterwards, 20 µl of 5% (v/v) TSIM were added. The samples were vortex-mixed and transferred into the micro-inserts of 1.8-ml glass vials. Finally, the samples were heated to 40 °C for 1 h and analyzed by GC–MS/MS.
A nine-point calibration curve in the range of 10–5000 µg/l was applied for the analysis of the in vivo study samples. For calibration, two analyte spiking solutions containing 50 mg/l and 2 mg/l of UV-P were prepared in acetonitrile.
The urinary creatinine content of the study samples was determined photometrically by the Jaffé’s method (Larsen [1972]). To quantify the unconjugated form of UV-P, the urine samples of one study participant were additionally processed without the addition of β-glucuronidase/arylsulfatase from H. pomatia and incubation at 37 °C.
Renal excretion rates (RE, in µg/h) of UV-P at a certain point in time were calculated by the following equation: RE=ci×vi/ti-ti-1 where ci (in µg/l) is the concentration of UV-P in the urine sample i, vi (in l) is the volume of the respective urine sample, ti (in h) is the elapsed time value of sample collection, and ti–1 (in h) is the elapsed time value of the previous sample collection.

rats = tested on: rats; set-up: method as in OECD [2017]; settings: ref OECD [2017]; cited from earlier work
[3] = tested on: aryl hydrocarbon receptor; set-up: method as in ref Fent et al. [2014]; Kubota et al. [2022]; Liang et al. [2023]; Nagayoshi et al. [2015]; settings: ref Fent et al. [2014]; Kubota et al. [2022]; Liang et al. [2023]; Nagayoshi et al. [2015]; cited from earlier work
human serum albumin = tested on: human serum albumin; set-up: method as in Zhuang et al. [2016]; settings: ref Zhuang et al. [2016]; cited from earlier work
[4] = set-up: method as in ref Arisu et al. [1992]; Björkner and Niklasson [1997]; Niklasson and Björkner [1989]; settings: ref Arisu et al. [1992]; Björkner and Niklasson [1997]; Niklasson and Björkner [1989]; cited from earlier work
[5] = set-up: method as in ref Fent et al. [2014]; Zhuang et al. [2017]; Sakuragi et al. [2021]; settings: in vivo studies; ref Fent et al. [2014]; Zhuang et al. [2017]; Sakuragi et al. [2021]; cited from earlier work
[6] = human, cited from earlier work
[7] = cited from earlier work

For `Cc1ccc(O)c(-n2nc3ccccc3n2)c1` [UV-P, 2-(2H-Benzotriazol-2-yl)-p-cresol], the half-life ([1]; both sexes, human, whole blood, human blood, single oral 0.3 mg/kg, first phase up to 6 h, n = 3, mean ± SD (range), read-out: t1/2—Phase 1 (blood) (converted)) was 1.3 ± 0.1 h, the half-life ([1]; both sexes, human, whole blood, human blood, single oral 0.3 mg/kg, second phase, n = 3, mean ± SD (range), read-out: t1/2—Phase 2 (blood) (converted)) was 7.7 ± 1.1 h and the concentration at 6 h ([1]; both sexes, human, whole blood, 6 h post-exposure, single oral 0.3 mg/kg, n = 3, read-out: mean blood level of UV-P) was 44 ± 30 ng/mL. The concentration at 24 h ([1]; both sexes, human, whole blood, 24 h post-exposure, single oral 0.3 mg/kg, n = 3, read-out: mean blood level of UV-P) was 2.5 ± 1.3 ng/mL, the concentration at 48 h ([1]; both sexes, human, whole blood, 48 h post-exposure, single oral 0.3 mg/kg, n = 3, read-out: mean blood level of UV-P) was 0.7 ± 0.7 ng/mL and the Cmax ([1]; both sexes, whole blood, human blood, single oral 0.3 mg/kg body weight, with enzymatic hydrolysis, n = 3, mean ± SD (range), read-out: cmax (maximum level of UV-P in blood)) was 184 ± 36 ng/mL. The concentration at 72 h ([1]; human, whole blood, 0.3 mg/kg body weight, 72 h after oral administration, Subject 1 only, read-out: blood level of UV-P) was 0.45 ng/mL, the Tmax ([1]; human, whole blood, 0.3 mg/kg body weight, third subject (Subject 1)) was 4 h and the Tmax ([1]; human, whole blood, 0.3 mg/kg body weight, two of the subjects (Subjects 2 and 3)) was 1 to 2 h. For the same compound, the “slope of linear fit, blood levels without vs with hydrolysis (unconjugated share)” value ([1]; subject 1) was 0.133, the “slope of linear fit, blood levels without vs with hydrolysis (unconjugated share)” value ([1]; subject 2) was 0.196 and the “slope of linear fit, blood levels without vs with hydrolysis (unconjugated share)” value ([1]; subject 3) was 0.135. For the same compound, the “orally administered dose recovered in urine within 72 h” value ([2]; Subject 1 only, 72 h) was 44.9%, the “time at which cumulative amount excreted via urine reached a plateau” value ([2]; after exposure, Subject 1 (Figure SI-3)) was “about 24 h” and the half-life ([2]; both sexes, human, urine, human urine, first phase until 7 h post-administration, n = 3, mean ± SD (range), read-out: t1/2—Phase 1 (renal excretion) (converted)) was 0.7 ± 0.2 h. For the same compound, the half-life ([2]; both sexes, human, urine, human urine, second elimination phase, n = 3, mean ± SD (range), read-out: t1/2—Phase 2 (renal excretion) (converted)) was 6.6 ± 1.1 h, the Tmax ([2]; both sexes, human, urine, po, 0.3 mg/kg, human urine, single oral 0.3 mg/kg, n = 3, mean ± SD (range), read-out: tmax (timepoint of maximum renal excretion rate)) was 3.5 ± 1.1 h and the “FUE after 6 h (urinary excretion factor, % of dose)” value ([2]; human urine, 6 h, n = 3, mean ± SD (range)) was 26.7–33.2%. For the same compound, the “FUE after 12 h (urinary excretion factor, % of dose)” value ([2]; human urine, 12 h, n = 3, mean ± SD (range)) was 30.4–40.2%, the “FUE after 24 h (urinary excretion factor, % of dose)” value ([2]; human urine, 24 h, n = 3, mean ± SD (range)) was 31.7–43.3% and the “FUE after 48 h (urinary excretion factor, % of dose)” value ([2]; human urine, 48 h, n = 3, mean ± SD (range)) was 37.2 ± 5.4% and 32.0–44.7% and 32–45% and 37%. For the same compound, the “REmax (maximum renal excretion rate)” value ([2]; human urine, single oral 0.3 mg/kg body weight, with enzymatic hydrolysis, n = 3, mean ± SD (range), 0.3 mg/kg) was 2896 ± 884 µg/h and 2896 ± 885 µg/h, the “tmax (timepoint of maximum renal excretion rate)” value ([2]; human urine, single oral 0.3 mg/kg, n = 3, mean ± SD (range), 0.3 mg/kg) was 2.6 to 5.0 h and 3 to 5 h and the “no-observed-adverse-effect level (NOAEL)” value (rats) was 30 mg/kg body weight per day. The “activation of the aryl hydrocarbon receptor” value [3] was “activates”, the “binding to human serum albumin” value (human serum albumin) was “bind” and the allergic contact dermatitis [4] was “cause allergic contact dermatitis”. For the same compound, the “endocrine effects in vivo” value [5] was “no indication of endocrine effects”.
In the case of `CC(C)(C)c1cc(-n2nc3ccc(Cl)cc3n2)c(O)c(C(C)(C)C)c1` [UV-327], the “time of maximum concentrations in blood (average)” value ([6]; in vivo, po) is listed as 6 h and the “sum of renally eliminated parent compound and metabolites” value ([7]; in vivo) is listed as 0.03%.
In the case of `CCC(C)(C)c1cc(-n2nc3ccccc3n2)c(O)c(C(C)(C)CC)c1` [UV-328, 2-(2H-benzotriazol-2-yl)-4,6-di-tert-pentylphenol], the “time of maximum concentrations in blood (average)” value ([6]; after oral administration, ref Fischer et al. [2023], Denghel et al. [2021]) is listed as 8 h, the “share of ingested amount excreted via urine as parent compound” value ([7]; accumulated until 72 h post-exposure, ref Denghel et al. [2021], Fischer et al. [2023]) is listed as 0.001% and the “share of conjugation of renally eliminated compound” value ([7]; human urine, ref Denghel et al. [2021], Fischer et al. [2023]) is listed as 16%. The “sum of renally eliminated parent compound and metabolites” value ([7]; share of ingested amount, ref Denghel et al. [2021], Fischer et al. [2023]) was 0.12%.
